For one assay, the target named is T1, flavodoxin of H. pylori (Helicobacter pylori, UniProt O25776).
T1 construct: made in house; host or cells: E. coli BL21
Put plainly: Binding to flavodoxin by isothermal titration calorimetry (ITC). To be noted: 50 mM EPPS buffer, pH 9 with 7% DMSO, protein around 20 μM, read-out: affinity for flavodoxin (affinity constant). On the procedure: The specific binding of the inhibitors of the present invention to flavodoxin of H. pylori was confirmed by isothermal titration calorimetry (ITC). This technique not only measures the affinity of each compound for the target protein, but also determines the contribution of the enthalpic and entropic components of binding.
The binding experiments were carried out in 50 mM EPPS buffer, pH 9 with 7% DMSO, with the inhibitor in the injection syringe at a concentration of 300-500 μM, and the protein around 20 μM in the measurement cell.

A further assay addresses T2, H. pylori flavodoxin (Helicobacter pylori, UniProt O25776).
T2 construct: made in house; host or cells: E. coli BL21 (flavodoxin); E. coli JVQ2 (PFOR); E. coli BL21(DE3) (FqrB)
T2 sequence (O25776 1-164): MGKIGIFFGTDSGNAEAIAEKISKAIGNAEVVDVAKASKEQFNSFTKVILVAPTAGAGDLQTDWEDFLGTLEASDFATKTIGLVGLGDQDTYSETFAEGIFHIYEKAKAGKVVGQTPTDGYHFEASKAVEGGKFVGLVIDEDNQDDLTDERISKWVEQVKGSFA
Put plainly: Inhibition of the sequential electron transfer reaction pyruvate-PFOR-flavodoxin-FqrB-NADP+ (NADPH formation at 340 nm). The class given is biochemical. To be noted: 50 μM compound; anaerobic; absorbance at 340 nm; 10 μM Fld. The text has this: Measurement of the absorbance (A) (AU is the unit of absorbance) at 340 nm against time (t) in seconds (s).
Flavodoxin is an essential protein for Helicobacter pylori survival as it participates in a fundamental reaction for obtaining energy from the oxidative decarboxylation of pyruvate. In this reaction, flavodoxin transfers electrons between the PFOR enzyme and the FqrB enzyme, which releases them to NADP^+.
The sequential reaction of electron transfer between pyruvate, PFOR, flavodoxin, FqrB and NADP^+ (activity assay) was followed spectroscopically by the appearance of the signal at 340 nm with the formation of NADPH. The reaction mixture contained 100 mM potassium phosphate pH 7, 10 mM pyruvate, 0.18 mM CoA, 1 mM MgCl, 0.3 mM NADP^+, 0.09 mg/ml PFOR, 10 μM Fld and 0.15 μM FqrB. The mixture, except CoA, was placed in a cuvette specially designed for anaerobic conditions. Oxygen was removed by means of 5 minute cycles with alternate flows of vacuum and argon. The reaction was started by the addition of 0.18 mM coenzyme A (CoA) that was held in a compartment inside the same cuvette. The reaction completed 15 minutes after adding the CoA reagent.
The inhibition assays were carried out in the same conditions as the activity assays previously described, adding an additional 50 μM of the disclosed compound of the general formula shown in (II) to the reaction cuvette.

For `O=[N+]([O-])/C=C/c1cc(C(F)(F)F)cc(C(F)(F)F)c1` [(II)], the Kd on flavodoxin of H. pylori is 8 µM. In addition, on H. pylori flavodoxin, the “inhibition of product (NADPH) formation in the essential reaction of H. pylori” value was “almost total”.

Values taken from US8461202B2, “Composition for treating infectious diseases” (priority 2007, dated 2013).
